The values below come from ChEMBL document CHEMBL1201862, “PubChem BioAssay data set” (2004).

The structures appear in SMILES notation.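 Growth conditions: 96-well plates. Treatment: test compound, 48 hours, 5 concentrations. Analysis: linear interpolation between bracketing concentrations; unreached endpoints set to highest concentration. Abbreviation: GI50, concentration required for 50% inhibition of growth.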 Active and inactive are the calls of the source. Cut-off read from the data, not from the text of the source: active = GI50 up to about 1.1 µM and inactive = higher. A value given as a limit tells only on which side of the number the result lay.

What all share (assay): DTP human tumour cell line panel, 48 h
Test [1] deals with SNB-75.
Test [2] has as its system KM-20L2.
The subject of test [3] is SW-620.
Test [4] has as its system EKVX.
The test system of test [5] is HOP-18.
In test [6] the test system is NCI-H460.
The subject of test [7] is DLD-1.
Test [8] deals with HL-60.
In test [9] the test system is HCC 2998.
The subject of test [10] is A549.
Test [11] deals with OVCAR-8.
Test [12] relates to A498.
The test system of test [13] is DMS-114.
Test [14] has as its system CCRF-CEM.
Test [15] has as its system KM12.
For test [16], the system named is UACC-62.
Test [17] concerns OVCAR-5.
In test [18] the test system is OVCAR-3.
Test [19] has as its system SF-539.
In test [20] the test system is DU-145.

In the case of `O=C1C2C3C=CC(C2C(=O)N1CN1CCSCC1)C1C2C(=O)N(CN4CCSCC4)C(=O)C2C31` (configuration not stated), the GI50 in [1] is 45.3 µM (inactive); in test [2] it was > 76.2 µM (inactive); in test [3] it was 31.7 µM (inactive); in test [4], > 100 µM (inactive); in test [5], 41.2 µM (inactive); in test [6] it was 31.2 µM (inactive). Further, the GI50 is > 51.4 µM (inactive) in [7]; 29.9 µM (inactive) in [8]; > 100 µM (inactive) in test [9]; 62.1 µM (inactive) in test [10]; > 94.2 µM (inactive) in [11]; > 100 µM (inactive) in test [12]. Further, the GI50 in [13] was 38.8 µM (inactive); in test [14], 45.9 µM (inactive); in test [15], > 100 µM (inactive); in test [16] it was > 100 µM (inactive); in [17], > 100 µM (inactive); in test [18], > 100 µM (inactive). In test [19], the GI50 is > 100 µM (inactive).

Turning to `O=C(/C=C/c1ccc(Cl)c(Cl)c1)c1ccc(F)cc1`, the GI50 in test [1] is 22.9 µM (inactive); in test [2], 16.5 µM (inactive); in [3], 2.05 µM (inactive); in test [4], 27.4 µM (inactive); in test [5], 16.9 µM (inactive); in test [6], 23.6 µM (inactive). The GI50 was 14.4 µM (inactive) in test [7]; 11.9 µM (inactive) in test [8]; 16.6 µM (inactive) in test [9]; 42.8 µM (inactive) in [10]; 16.7 µM (inactive) in test [11]; 50.9 µM (inactive) in test [12]. Moreover, the GI50 in test [13] is 14.7 µM (inactive); in [14] it was 4.42 µM (inactive); in [15], 8.65 µM (inactive); in test [16], 14.7 µM (inactive); in test [17] it was 18.3 µM (inactive); in test [18] it was 18.6 µM (inactive). The GI50 in test [19] is 20.8 µM (inactive).

Consider `Nc1c(C(=O)Nc2ccccc2)[n+]([O-])c2ccccc2[n+]1[O-]`, for which the GI50 is 13 µM (inactive) in [1]; 17.7 µM (inactive) in test [2]; 15.2 µM (inactive) in [3]; 25.9 µM (inactive) in [4]; 13.5 µM (inactive) in [5]; 14.9 µM (inactive) in test [6]. Moreover, the GI50 was 15.6 µM (inactive) in test [7]; 17.9 µM (inactive) in test [8]; 17.6 µM (inactive) in test [9]; 25.1 µM (inactive) in [10]; 36.8 µM (inactive) in [11]; 16.9 µM (inactive) in test [12]. Besides, the GI50 in test [13] was 9.62 µM (inactive); in test [14] it was 19.1 µM (inactive); in [15] it was 14.2 µM (inactive); in test [16], 10.5 µM (inactive); in test [17], 22.5 µM (inactive); in [18], 17.3 µM (inactive). Moreover, in [19], the GI50 was 17.9 µM (inactive).

As to `CCCCCCNC(=O)CCN(C(=O)O)S(=O)(=O)c1ccc(NC(=O)c2ccccc2)cc1`, the GI50 in [1] is > 100 µM (inactive); in test [2], > 100 µM (inactive); in test [3], 14.2 µM (inactive); in test [4], > 100 µM (inactive); in test [5], > 100 µM (inactive); in [6], 27.6 µM (inactive). The GI50 in test [7] is 19.1 µM (inactive); in test [8], 35.9 µM (inactive); in test [9], > 100 µM (inactive); in test [10] it was > 45.7 µM (inactive); in test [11], > 61.2 µM (inactive); in test [12], > 100 µM (inactive). Moreover, the GI50 in [13] was 20.4 µM (inactive); in test [14] it was 22.3 µM (inactive); in test [15], > 57.4 µM (inactive); in [16] it was > 44.6 µM (inactive); in test [17], > 100 µM (inactive); in [18] it was > 100 µM (inactive). The GI50 in test [19] was 17.9 µM (inactive).

In the case of `C/C(=N\NC(=S)N1CCC(N2CCCCC2)CC1)c1ccccn1`, the GI50 in test [1] is 2.87 µM (inactive); in [2], 4.46 µM (inactive); in test [3], 3.1 µM (inactive); in test [4], 3.4 µM (inactive); in test [5], 3.8 µM (inactive); in test [20], 3.72 µM (inactive). The GI50 in test [6] was 2.73 µM (inactive); in test [7] it was 39.7 µM (inactive); in [8] it was 0.796 µM (active); in [9] it was 11.7 µM (inactive); in test [10], 3.15 µM (inactive); in test [11] it was 3.21 µM (inactive). Besides, the GI50 is 2.37 µM (inactive) in test [12]; 0.522 µM (active) in [13]; 0.661 µM (active) in test [14]; 2.81 µM (inactive) in test [15]; 3.33 µM (inactive) in test [16]; 4.11 µM (inactive) in test [17]. In addition, the GI50 in test [18] was 2.4 µM (inactive); in [19] it was 3.11 µM (inactive).

`CN(C)CC1CC/C(=C\c2ccc(Cl)c(Cl)c2)C1=O` (configuration not stated): the GI50 is > 41.7 µM (inactive) in test [1]; > 34.5 µM (inactive) in test [2]; 24.3 µM (inactive) in [3]; 39.3 µM (inactive) in test [4]; > 62.4 µM (inactive) in test [5]; 17.4 µM (inactive) in test [6]. Moreover, the GI50 in test [7] is 16 µM (inactive); in [8], 0.586 µM (active); in test [9], > 40.8 µM (inactive); in test [10], > 100 µM (inactive); in [11], 25.6 µM (inactive); in test [12], 30.2 µM (inactive). Also, the GI50 in [13] is > 47.8 µM (inactive); in [14] it was 2.49 µM (inactive); in test [15], 11.5 µM (inactive); in [16], 17.6 µM (inactive); in test [17], > 55.2 µM (inactive); in test [18], 28.3 µM (inactive). Moreover, the GI50 in [19] was > 40.5 µM (inactive).

`CCOC(=O)COS(=O)(=O)C(F)(F)F`: the GI50 in [1] was > 100 µM (inactive); in test [2] it was > 100 µM (inactive); in test [4] it was > 100 µM (inactive); in [5], > 100 µM (inactive); in test [6] it was 41.9 µM (inactive); in [7], 41.2 µM (inactive). In addition, the GI50 in test [8] was > 100 µM (inactive); in [9] it was > 100 µM (inactive); in test [10], > 100 µM (inactive); in [11] it was > 100 µM (inactive); in [12], > 100 µM (inactive); in [13], 17.1 µM (inactive). Moreover, the GI50 in test [14], in test [15], in [16], in test [17], in test [18] and in test [19] was > 100 µM (inactive) each time.

With `C1CN2CCN3CCN4CCN1[PH]243`, the GI50 in test [1], in test [2], in [3], in test [4], in [5] and in [6] was > 100 µM (inactive) in each case. The GI50 in test [7], in test [8], in [9], in [10], in test [11] and in test [12] was > 100 µM (inactive) in each case. Also, the GI50 in test [13], in test [14], in test [15], in [16], in test [17] and in [18] was > 100 µM (inactive) in each case. For the same compound, in test [19], the GI50 was > 100 µM (inactive).

For orientation: GI50 means the concentration at which growth is held to half of that of the control.
